# PubChem BioAssay (NCI)
#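 Values below derive from 48-hour exposures of cells grown in 96-well plates, with endpoints linearly interpolated between the two concentrations bracketing the appropriate inhibition level. The concentration for full growth arrest is given as TGI.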
# Legend:
# Experiment in all cases: NCI tumour cell line growth inhibition, 48 h
# 786-0 renal = test system: 786-0 renal
# A549 NSCLC = test system: A549 NSCLC
# ACHN renal = test system: ACHN renal
# BT-549 breast = test system: BT-549 breast
# CAKI-1 renal = test system: CAKI-1 renal
# CCRF-CEM leukemia = test system: CCRF-CEM leukemia
# COLO 205 colon = test system: COLO 205 colon
# DU-145 prostate = test system: DU-145 prostate
# EKVX NSCLC = test system: EKVX NSCLC
# HCC-2998 colon = test system: HCC-2998 colon
# HCT-116 colon = test system: HCT-116 colon
# HCT-15 colon = test system: HCT-15 colon
# HL-60(TB) leukemia = test system: HL-60(TB) leukemia
# HOP-62 NSCLC = test system: HOP-62 NSCLC
# HOP-92 NSCLC = test system: HOP-92 NSCLC
# HS 578T breast = test system: HS 578T breast
# HT29 colon = test system: HT29 colon
# IGROV1 ovarian = test system: IGROV1 ovarian
# K-562 leukemia = test system: K-562 leukemia
# KM12 colon = test system: KM12 colon
# LOX IMVI melanoma = test system: LOX IMVI melanoma
# M14 melanoma = test system: M14 melanoma
# MALME-3M melanoma = test system: MALME-3M melanoma
# MCF7 breast = test system: MCF7 breast
# MDA-MB-231 breast = test system: MDA-MB-231 breast
# MDA-MB-435 = test system: MDA-MB-435
# MDA-N = test system: MDA-N
# MOLT-4 leukemia = test system: MOLT-4 leukemia
# NCI-H226 lung = test system: NCI-H226 lung
# NCI-H23 lung = test system: NCI-H23 lung
# NCI-H460 lung = test system: NCI-H460 lung
# NCI-H522 lung = test system: NCI-H522 lung
# NCI/ADR-RES ovarian = test system: NCI/ADR-RES ovarian
# OVCAR-3 ovarian = test system: OVCAR-3 ovarian
# OVCAR-4 ovarian = test system: OVCAR-4 ovarian
# OVCAR-5 ovarian = test system: OVCAR-5 ovarian
# OVCAR-8 ovarian = test system: OVCAR-8 ovarian
# PC-3 prostate = test system: PC-3 prostate
# RPMI-8226 leukemia = test system: RPMI-8226 leukemia
# RXF 393 renal = test system: RXF 393 renal
# SF-268 CNS = test system: SF-268 CNS
# SF-295 CNS = test system: SF-295 CNS
# SF-539 CNS = test system: SF-539 CNS
# SK-MEL-2 melanoma = test system: SK-MEL-2 melanoma
# SK-MEL-28 melanoma = test system: SK-MEL-28 melanoma
# SK-MEL-5 melanoma = test system: SK-MEL-5 melanoma
# SK-OV-3 ovarian = test system: SK-OV-3 ovarian
# SN12C renal = test system: SN12C renal
# SNB-19 CNS = test system: SNB-19 CNS
# SNB-75 CNS = test system: SNB-75 CNS
# SR leukemia = test system: SR leukemia
# SW-620 colon = test system: SW-620 colon
# T-47D breast = test system: T-47D breast
# TK-10 renal = test system: TK-10 renal
# U251 CNS = test system: U251 CNS
# UACC-257 melanoma = test system: UACC-257 melanoma
# UACC-62 melanoma = test system: UACC-62 melanoma
# UO-31 renal = test system: UO-31 renal
# A498 renal = test system: A498 renal
smiles,measurement,setting,value
CC1=NN(C(=O)CC(=O)Nc2cccc(Cl)c2)C(=O)C1N=Nc1ccc(S(=O)(=O)c2ccc(N=NC3C(=O)N(C(=O)CC(=O)Nc4cccc(Cl)c4)N=C3C)cc2)cc1 (stereo not given),TGI,786-0 renal,> 100 µM
same,TGI,A549 NSCLC,> 100 µM
same,TGI,ACHN renal,> 100 µM
same,TGI,BT-549 breast,> 100 µM
same,TGI,CAKI-1 renal,> 100 µM
same,TGI,CCRF-CEM leukemia,> 100 µM
same,TGI,COLO 205 colon,> 100 µM
same,TGI,DU-145 prostate,> 100 µM
same,TGI,EKVX NSCLC,> 100 µM
same,TGI,HCC-2998 colon,> 100 µM
same,TGI,HCT-116 colon,> 100 µM
same,TGI,HCT-15 colon,> 100 µM
same,TGI,HL-60(TB) leukemia,> 100 µM
same,TGI,HOP-62 NSCLC,> 100 µM
same,TGI,HOP-92 NSCLC,> 100 µM
same,TGI,HS 578T breast,> 100 µM
same,TGI,HT29 colon,> 100 µM
same,TGI,IGROV1 ovarian,> 100 µM
same,TGI,K-562 leukemia,> 100 µM
same,TGI,KM12 colon,> 100 µM
same,TGI,LOX IMVI melanoma,> 100 µM
same,TGI,M14 melanoma,> 100 µM
same,TGI,MALME-3M melanoma,> 100 µM
same,TGI,MCF7 breast,> 100 µM
same,TGI,MDA-MB-231 breast,52.2 µM
same,TGI,MDA-MB-435,> 100 µM
same,TGI,MDA-N,> 100 µM
same,TGI,MOLT-4 leukemia,> 100 µM
same,TGI,NCI-H226 lung,> 100 µM
same,TGI,NCI-H23 lung,> 100 µM
same,TGI,NCI-H460 lung,> 100 µM
same,TGI,NCI-H522 lung,> 100 µM
same,TGI,NCI/ADR-RES ovarian,> 100 µM
same,TGI,OVCAR-3 ovarian,> 100 µM
same,TGI,OVCAR-4 ovarian,> 100 µM
same,TGI,OVCAR-5 ovarian,> 100 µM
same,TGI,OVCAR-8 ovarian,> 100 µM
same,TGI,PC-3 prostate,> 100 µM
same,TGI,RPMI-8226 leukemia,> 100 µM
same,TGI,RXF 393 renal,> 100 µM
same,TGI,SF-268 CNS,> 100 µM
same,TGI,SF-295 CNS,> 100 µM
same,TGI,SF-539 CNS,55.6 µM
same,TGI,SK-MEL-2 melanoma,> 100 µM
same,TGI,SK-MEL-28 melanoma,> 100 µM
same,TGI,SK-MEL-5 melanoma,> 100 µM
same,TGI,SK-OV-3 ovarian,> 100 µM
same,TGI,SN12C renal,> 100 µM
same,TGI,SNB-19 CNS,> 100 µM
same,TGI,SNB-75 CNS,> 100 µM
same,TGI,SR leukemia,> 100 µM
same,TGI,SW-620 colon,> 100 µM
same,TGI,T-47D breast,> 100 µM
same,TGI,TK-10 renal,> 100 µM
same,TGI,U251 CNS,> 100 µM
same,TGI,UACC-257 melanoma,> 100 µM
same,TGI,UACC-62 melanoma,> 100 µM
same,TGI,UO-31 renal,> 100 µM
COc1ccc2c(-c3ccc(O)cc3)c(Oc3ccccc3)c(=O)oc2c1,TGI,786-0 renal,> 52.1 µM
same,TGI,A498 renal,> 62 µM
same,TGI,A549 NSCLC,> 43 µM
same,TGI,ACHN renal,> 85.9 µM
same,TGI,BT-549 breast,> 100 µM
same,TGI,CAKI-1 renal,> 100 µM
same,TGI,CCRF-CEM leukemia,> 100 µM
same,TGI,COLO 205 colon,> 100 µM
same,TGI,DU-145 prostate,> 50.8 µM
same,TGI,EKVX NSCLC,> 77.8 µM
same,TGI,HCC-2998 colon,> 69.3 µM
same,TGI,HCT-116 colon,> 93.5 µM
same,TGI,HCT-15 colon,> 100 µM
same,TGI,HL-60(TB) leukemia,> 100 µM
same,TGI,HOP-62 NSCLC,> 100 µM
same,TGI,HOP-92 NSCLC,> 87.8 µM
same,TGI,HS 578T breast,99.1 µM
same,TGI,HT29 colon,98.2 µM
same,TGI,IGROV1 ovarian,> 62.3 µM
same,TGI,K-562 leukemia,> 100 µM
same,TGI,KM12 colon,> 100 µM
same,TGI,LOX IMVI melanoma,> 100 µM
same,TGI,M14 melanoma,> 100 µM
same,TGI,MALME-3M melanoma,> 86.3 µM
same,TGI,MCF7 breast,> 100 µM
same,TGI,MDA-MB-231 breast,> 100 µM
same,TGI,MDA-MB-435,> 100 µM
same,TGI,MDA-N,> 100 µM
same,TGI,MOLT-4 leukemia,> 100 µM
same,TGI,NCI-H226 lung,> 87.2 µM
same,TGI,NCI-H23 lung,> 100 µM
same,TGI,NCI-H460 lung,> 100 µM
same,TGI,NCI-H522 lung,> 100 µM
same,TGI,NCI/ADR-RES ovarian,> 100 µM
same,TGI,OVCAR-3 ovarian,> 100 µM
same,TGI,OVCAR-4 ovarian,> 100 µM
same,TGI,OVCAR-5 ovarian,> 100 µM
same,TGI,OVCAR-8 ovarian,> 100 µM
same,TGI,PC-3 prostate,> 100 µM
same,TGI,RPMI-8226 leukemia,> 100 µM
same,TGI,RXF 393 renal,> 47.8 µM
same,TGI,SF-268 CNS,> 100 µM
same,TGI,SF-295 CNS,> 100 µM
same,TGI,SF-539 CNS,> 100 µM
same,TGI,SK-MEL-2 melanoma,> 100 µM
same,TGI,SK-MEL-28 melanoma,> 100 µM
same,TGI,SK-MEL-5 melanoma,> 52 µM
same,TGI,SK-OV-3 ovarian,> 100 µM
same,TGI,SN12C renal,> 42.1 µM
same,TGI,SNB-19 CNS,> 53.7 µM
same,TGI,SNB-75 CNS,> 66.5 µM
same,TGI,SR leukemia,> 23.4 µM
same,TGI,SW-620 colon,> 100 µM
same,TGI,T-47D breast,> 100 µM
same,TGI,TK-10 renal,18.1 µM
same,TGI,U251 CNS,> 61.5 µM
same,TGI,UACC-257 melanoma,> 100 µM
same,TGI,UACC-62 melanoma,> 100 µM
same,TGI,UO-31 renal,27.5 µM
OCC1CCCCN1Cc1nc2ccc(Cl)cc2[nH]1 (stereo not given),TGI,786-0 renal,> 100 µM
same,TGI,A498 renal,> 100 µM
same,TGI,A549 NSCLC,> 100 µM
same,TGI,ACHN renal,> 100 µM
same,TGI,BT-549 breast,> 100 µM
same,TGI,CAKI-1 renal,> 100 µM
same,TGI,CCRF-CEM leukemia,> 100 µM
same,TGI,COLO 205 colon,> 100 µM
same,TGI,DU-145 prostate,> 100 µM
same,TGI,EKVX NSCLC,> 100 µM
same,TGI,HCC-2998 colon,> 100 µM
same,TGI,HCT-116 colon,> 100 µM
same,TGI,HCT-15 colon,> 100 µM
same,TGI,HL-60(TB) leukemia,> 100 µM
same,TGI,HOP-62 NSCLC,> 100 µM
same,TGI,HOP-92 NSCLC,> 100 µM
same,TGI,HS 578T breast,> 100 µM
same,TGI,HT29 colon,> 100 µM
same,TGI,IGROV1 ovarian,> 100 µM
same,TGI,K-562 leukemia,> 100 µM
same,TGI,KM12 colon,> 100 µM
same,TGI,M14 melanoma,> 100 µM
same,TGI,MALME-3M melanoma,> 100 µM
same,TGI,MCF7 breast,> 100 µM
same,TGI,MDA-MB-231 breast,> 100 µM
same,TGI,MDA-MB-435,> 100 µM
same,TGI,MDA-N,> 100 µM
same,TGI,MOLT-4 leukemia,> 100 µM
same,TGI,NCI-H226 lung,> 100 µM
same,TGI,NCI-H23 lung,> 100 µM
same,TGI,NCI-H460 lung,> 100 µM
same,TGI,NCI-H522 lung,> 100 µM
same,TGI,NCI/ADR-RES ovarian,> 100 µM
same,TGI,OVCAR-3 ovarian,> 100 µM
same,TGI,OVCAR-4 ovarian,> 100 µM
same,TGI,OVCAR-5 ovarian,> 100 µM
same,TGI,OVCAR-8 ovarian,> 100 µM
same,TGI,PC-3 prostate,> 100 µM
same,TGI,RPMI-8226 leukemia,> 100 µM
same,TGI,RXF 393 renal,> 100 µM
same,TGI,SF-268 CNS,> 100 µM
same,TGI,SF-295 CNS,> 100 µM
same,TGI,SF-539 CNS,> 100 µM
same,TGI,SK-MEL-2 melanoma,> 100 µM
same,TGI,SK-MEL-28 melanoma,> 100 µM
same,TGI,SK-MEL-5 melanoma,> 100 µM
same,TGI,SK-OV-3 ovarian,> 100 µM
same,TGI,SN12C renal,> 100 µM
same,TGI,SNB-19 CNS,> 100 µM
same,TGI,SNB-75 CNS,> 100 µM
same,TGI,SR leukemia,> 100 µM
same,TGI,SW-620 colon,> 100 µM
same,TGI,T-47D breast,> 100 µM
same,TGI,TK-10 renal,> 100 µM
same,TGI,U251 CNS,> 100 µM
same,TGI,UACC-257 melanoma,> 100 µM
same,TGI,UACC-62 melanoma,> 100 µM
same,TGI,UO-31 renal,> 100 µM
